Measurements published in US8153649B2, “3-aminoimidazo 1,2-A pyridine derivatives having an SGLT1- and SGLT2-inhibiting action for the treatment of type 1 and type 2 diabetes” (Merck Patent Gesellschaft mit beschrankter Haftung, priority 2006, dated 2012).

Experiments:
[1] = biological target: T1, SGLT1 (Homo sapiens, UniProt P13866); experiment: 14C-AMG uptake in BHK cells transfected with SGLT1; type: cell-based; conditions: 37° C., 90 min
T1 construct: expressed in transfected cells
T1 sequence (P13866 1-664): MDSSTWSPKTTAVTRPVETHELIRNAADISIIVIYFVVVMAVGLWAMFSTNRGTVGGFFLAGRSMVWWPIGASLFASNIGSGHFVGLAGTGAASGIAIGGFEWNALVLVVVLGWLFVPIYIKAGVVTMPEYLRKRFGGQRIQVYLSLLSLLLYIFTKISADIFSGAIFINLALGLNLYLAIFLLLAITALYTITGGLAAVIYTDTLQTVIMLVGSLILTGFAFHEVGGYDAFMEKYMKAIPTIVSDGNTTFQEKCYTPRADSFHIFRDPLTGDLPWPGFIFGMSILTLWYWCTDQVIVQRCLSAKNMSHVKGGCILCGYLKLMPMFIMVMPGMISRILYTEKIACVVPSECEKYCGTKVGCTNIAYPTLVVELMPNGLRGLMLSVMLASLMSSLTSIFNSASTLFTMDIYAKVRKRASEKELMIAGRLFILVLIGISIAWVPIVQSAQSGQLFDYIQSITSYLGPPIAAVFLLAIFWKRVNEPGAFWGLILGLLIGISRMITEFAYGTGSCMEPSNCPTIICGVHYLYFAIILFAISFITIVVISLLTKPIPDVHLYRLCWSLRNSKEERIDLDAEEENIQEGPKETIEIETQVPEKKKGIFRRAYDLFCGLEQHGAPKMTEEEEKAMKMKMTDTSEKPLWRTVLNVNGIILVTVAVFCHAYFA
From the text: (§1) The compounds can be tested on their SGLT inhibition properties by means of BHK cells expressing SGLT1 and SGLT2. The production of the cells and the testing can be carried out as described below.
To construct the SGLT1 expression vector (KL225), the SLC5A1 gene (homologous to NM_000343) was amplified from a cDNA library using standard PCR technology and cloned over NheI/XhoI sites into the cDNA3.1 expression vector (Invitrogen) containing neomycin as a selection marker. In this vector, transcription uses the enhancer/promoter of human cytomegalovirus.
The final vector KL225 together with an additional vector containing a dihydrofolate reductase gene as a selection marker was introduced into cells. Transfection into BHK21 cells (ATCC CCL-10), cultivated in DMEM medium (GIBCO/BRL), supplemented with 10% foetal calf serum (FCS) and 20 mM glutamine, was carried out using calcium phosphate transfections according to Graham, F. L. and van der Ebb, A. J. (1973), Virology 52: 456 with 5-20 μg of uncut plasmids for 10^7 cells. Stable transfectants were selected in medium containing 1 mg/ml of G418 (GIBCO/BRL) and 20-5000 nM methotrexate as final concentration, where only cells which expressed the neomycin gene and overexpressed the dhfr gene were able to grow. After growth for 2-3 weeks, the cells were cloned (0.5 cells/well) and the clones were investigated for SGLT expression in the radioactivity uptake test. […]
(§2) A 96-well cell-based assay was developed and adapted to HIS requirements:
(§3) BHK cells (transfected with SGLT1 or SGLT2) were seeded into 96-well microtitre plates (Cultureplates, Perkin Elmer). After at least 24 h, medium was removed and the cell layer was washed with assay buffer (140 mM NaCl, 2 mM KCl, 1 mM CaCl2, 1 mM MgCl2, 10 mM HEPES, 5 mM Tris, adjusted with 1 M KOH to pH 7.4), After addition of 40 μl of assay buffer, 50 μl of AMG ([…] for SGLT1 and 2 mM for SGLT2) in the presence or absence of compounds, the cells were incubated in a total volume of 100 μl at 37° C. for 90 min. Supernatant was removed by suction and discarded. The cells were washed and lysed by addition of 50 μl of water. After 10 min at room temperature, 200 μl of Microscint 40 (Perkin Elmer) were added. The radioactivity was counted in a Topcount microplate scintillation counter (Perkin Elmer). The non-specific uptake was determined in sodium-free assay buffer (266 mM sucrose, 2 mM KCl, 1 mM CaCl2, 1 mM MgCl2, 10 mM HEPES, 5 mM Tris, adjusted to pH 7.4 using 1 M KOH).

[2] = biological target: T2, SGLT2 (Homo sapiens, UniProt P31639); experiment: 14C-AMG uptake in BHK cells transfected with SGLT2; type: cell-based; conditions: 37° C., 90 min
T2 construct: expressed in transfected cells
T2 sequence (P31639 1-672): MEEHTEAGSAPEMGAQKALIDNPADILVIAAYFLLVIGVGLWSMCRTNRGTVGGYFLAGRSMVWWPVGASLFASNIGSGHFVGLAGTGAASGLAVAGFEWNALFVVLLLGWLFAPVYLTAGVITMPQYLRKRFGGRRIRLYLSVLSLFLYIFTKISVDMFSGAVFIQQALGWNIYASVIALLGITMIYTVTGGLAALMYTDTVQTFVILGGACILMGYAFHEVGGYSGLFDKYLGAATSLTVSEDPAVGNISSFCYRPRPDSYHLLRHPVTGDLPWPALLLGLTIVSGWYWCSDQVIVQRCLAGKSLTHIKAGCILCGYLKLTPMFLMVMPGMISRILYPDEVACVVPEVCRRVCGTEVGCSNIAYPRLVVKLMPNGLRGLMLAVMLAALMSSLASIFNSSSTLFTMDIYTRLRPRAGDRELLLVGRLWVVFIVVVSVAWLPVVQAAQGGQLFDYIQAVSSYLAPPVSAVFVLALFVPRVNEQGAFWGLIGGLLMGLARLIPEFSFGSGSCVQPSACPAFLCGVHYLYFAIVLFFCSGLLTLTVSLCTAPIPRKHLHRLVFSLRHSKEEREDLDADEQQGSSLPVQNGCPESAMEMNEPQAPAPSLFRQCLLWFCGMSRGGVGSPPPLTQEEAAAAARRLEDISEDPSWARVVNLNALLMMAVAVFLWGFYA
From the text: as §1
To construct the SGLT2 expression vector (KL224), the SLC5A2 gene (homologous to NM_003041) was amplified from a cDNA library using standard PCR technology and cloned over NheI/XhoI sites into PCI-neo expression vector (Promega) containing neomycin as a selection marker. In this vector, transcription uses the enhancer/promoter of human cytomegalovirus and the SV40 polyadenylation signal.
The final vector KL224 together with an additional vector containing a dihydrofolate reductase gene as a selection marker was introduced into cells. Transfection into BHK21 cells (ATCC CCL-10), cultivated in DMEM medium (GIBCO/BRL), supplemented with 10% foetal calf serum (FCS) and 20 mM glutamine, was carried out using calcium phosphate transfections according to Graham, F. L. and van der Ebb, A. J. (1973), Virology 52: 456 with 5-20 μg of uncut plasmids for 10^7 cells. Stable transfectants were selected in medium containing 1 mg/ml of G418 (GIBCO/BRL) and 20-5000 nM methotrexate as final concentration, where only cells which expressed the neomycin gene and overexpressed the dhfr gene were able to grow. After growth for 2-3 weeks, the cells were cloned (0.5 cells/well) and the clones were investigated for SGLT expression in the radioactive uptake test,
The uptake of ^14C-α-methyl-D-glucopyranoside (AMG) in, for example, Xenopus oocytes injected with the corresponding cRNA has been described in principle (for example Wen-Sen Lee et al. (1994), J. Biol. Chem. 269, 12032-12039; Guofeng You et al. (1995), J. Biol. Chem. 270, 29365-29371).
as §2, §3

Row | Compound | IC50 [1] [µM] | IC50 [2] [µM]
1 | Cc1cccc(C)c1Nc1c(-c2ccccc2-c2nccs2)nc2ccc(F)cn12 [Compound A1, (2,6-dimethylphenyl)-[6-fluoro-2-(2-thiazol-2-ylphenyl)-imidazo[1,2-a]pyridin-3-yl]amine] | > 10 | > 10
2 | Cc1cccc(C)c1Nc1c(-c2ccccc2-c2cccc(C(=O)O)c2)nc2ccccn12 [Compound A2, 2′-[3-(2,6-Dimethylphenylamino)imidazo [1,2-a]pyridin-2-yl]biphenyl-3-carboxylic acid] | > 10 | > 10
3 | Cc1cccc(C)c1Nc1c(-c2ccccc2-c2cccs2)nc2ccc(F)cn12 [Compound A3] | > 10 | 1 to 10
4 | Cc1cccc(C)c1Nc1c(-c2ccccc2-c2cccc(C(N)=O)c2)nc2ccccn12 [Compound A4] | 1 to 10 | 1 to 10
5 | Cc1cccc(C)c1Nc1c(-c2c(-n3cccn3)cccc2-n2cccn2)nc2ccc(F)cn12 [Compound A5, (2,6-Dimethylphenyl)-[2-(2,6-dipyrazol-1-yl-phenyl)-6-fluoroimidazo[1,2-a]pyridin-3-yl]-amine] | 1 to 10 | 1 to 10
6 | Cc1cccc(C)c1Nc1c(-c2ccccc2-n2cccn2)nc2ccc(F)cn12 [Compound A6] | > 10 | 1 to 10
7 | Cc1cccc(C)c1Nc1c(-c2ccccc2-c2ccc(C(N)=O)o2)nc2ccc(F)cn12 [Compound A7] | 1 to 10 | 1 to 10
8 | Cc1cccc(C)c1Nc1c(-c2ccccc2-c2ccc([N+](=O)[O-])s2)nc2ccc(F)cn12 [Compound A8] | 1 to 10 | 1 to 10
9 | Cc1cccc(C)c1Nc1c(-c2ccccc2-c2cncnc2)nc2ccccn12 [Compound A9] | 1 to 10 | 0.01 to 1
10 | Cc1nc(-c2ccccc2-c2nc3ccc(F)cn3c2Nc2c(C)cccc2C)no1 [Compound A10] | 1 to 10 | 0.01 to 1
11 | Cc1cccc(C)c1Nc1c(-c2ccccc2-c2cccnc2)nc2ccc(F)cn12 [Compound A11] | 1 to 10 | 0.01 to 1

Other lines, results leading:

Row | IC50 [1] [µM] | IC50 [2] [µM] | Compound
12 | > 10 | 0.01 to 1 | Cc1cccc(C)c1Nc1c(-c2ccccc2-c2nnc(N)o2)nc2ccc(F)cn12 [Compound B1, {2-[2-(5-amino-1,3,4-oxadiazol-2-yl)phenyl]-6-fluoroimidazo[1,2-a]pyridin-3-yl}-(2,6-dimethylphenyl)amine]
13 | > 10 | 0.01 to 1 | Cc1cccc(C)c1Nc1c(-c2c(Cl)cccc2-c2nnc(N)o2)nc2ccc(F)cn12 [Compound B2]
14 | 1 to 10 | 0.01 to 1 | CNc1nnc(-c2ccccc2-c2nc3ccc(F)cn3c2Nc2c(C)cccc2C)o1 [Compound C1, (2,6-dimethylphenyl)-{6-fluoro-2-[2-(5-methylamino-1,3,4-oxadiazol-2-yl)phenyl]imidazo[1,2-a]pyridin-3-yl}amine]
15 | > 10 | 1 to 10 | CNc1nnc(-c2cc(O)c(O)cc2-c2nc3ccc(F)cn3c2Nc2c(C)cc(F)cc2C)o1 [Compound C2]
16 | > 10 | 1 to 10 | CNc1nnc(-c2cc(OC)c(OC)cc2-c2nc3ccc(F)cn3c2Nc2c(C)cc(F)cc2C)o1 [Compound C3]
17 | 1 to 10 | 0.01 to 1 | Cc1cccc(C)c1Nc1c(-c2ccccc2-c2nnc(N(C)C)o2)nc2ccc(F)cn12 [Compound C4]
18 | 1 to 10 | 0.01 to 1 | CCNc1nnc(-c2ccccc2-c2nc3ccc(F)cn3c2Nc2c(C)cccc2C)o1 [Compound C5]
19 | 1 to 10 | 0.01 to 1 | CNc1nnc(-c2c(-c3nc4ccc(F)cn4c3Nc3c(C)cccc3C)c3ccccc3n2C)o1 [Compound C12, (2,6-Dimethylphenyl)-{6-fluoro-2-[1-methyl-2-(5-methylamino-1,3,4-oxadiazol-2-yl)-1H-indol-3-yl]imidazo[1,2-a]pyridin-3-yl}amine]
20 | 0.01 to 1 | 0.01 to 1 | CNc1nnc(-c2sc3ccccc3c2-c2nc3ccc(F)cn3c2Nc2c(C)cccc2C)o1 [Compound C13, (2,6-Dimethylpheny1)-{6-fluoro-2-[2-(5-methylamino-1,3,4-oxadiazol-2-y1)-benzo[b]thiophen-3-yl]imidazo[1,2-a]pyridin-3-yl}amine]
